{"source": "patent US11497819B2", "about": "“PSMA ligands for imaging and endoradiotherapy” (priority 2017, dated 2022)", "key": {"[1]": {"test": "Lipophilicity, logP in n-octanol/PBS of radiolabeled PSMA inhibitors", "assay_type": "physicochemical", "conditions": "pH 7.4", "description": "The radiolabeled PSMA inhibitor (0.5 to 1.0 MBq) dissolved in PBS (500 μL, pH=7.4), was added to n-octanol (500 μL) in a reaction vial (1.5 mL), which was rigorously vortexed for 3 min (n=6). For quantitative phase separation, the mixture was centrifuged at 6,000 g for 5 min (Biofuge 15, Heraus Sepatech, Osterode, Germany). The activity from samples of each phase (100 μL) were measured in a γ-counter to obtain the log P(o/w) value."}, "[2]": {"biological_target": "T1, HSA (Homo sapiens, UniProt P02768)", "T1 construct": "purchased Daicel Chemical Industries / Chiral Technologies Europe (Illkirch, France)", "T1 sequence (P02768 25-609)": "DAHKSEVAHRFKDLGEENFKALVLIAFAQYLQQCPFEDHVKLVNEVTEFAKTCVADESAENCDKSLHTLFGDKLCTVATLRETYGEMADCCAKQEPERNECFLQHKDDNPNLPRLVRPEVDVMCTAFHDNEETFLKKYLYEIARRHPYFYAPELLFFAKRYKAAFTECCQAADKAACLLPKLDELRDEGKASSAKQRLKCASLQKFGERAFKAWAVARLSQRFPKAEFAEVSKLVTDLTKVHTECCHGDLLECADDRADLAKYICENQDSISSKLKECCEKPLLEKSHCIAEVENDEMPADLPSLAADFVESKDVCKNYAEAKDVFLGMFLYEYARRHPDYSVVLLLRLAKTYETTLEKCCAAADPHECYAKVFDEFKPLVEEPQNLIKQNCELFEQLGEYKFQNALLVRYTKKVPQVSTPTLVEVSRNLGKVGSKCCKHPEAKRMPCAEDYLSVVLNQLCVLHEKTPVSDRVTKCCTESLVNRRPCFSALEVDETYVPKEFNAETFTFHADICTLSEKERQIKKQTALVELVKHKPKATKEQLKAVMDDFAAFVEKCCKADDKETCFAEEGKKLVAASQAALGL", "test": "HSA binding on Chiralpak HSA column", "assay_type": "in vitro ADME", "conditions": "human, 0.5 mg/mL", "description": "HSA binding experiments were performed as previously described. […] For each run, 10 μL of the solution containing the inhibitor was injected into the RP-HPLC system and the retention time measured. […] Non-linear regression was established with OriginPro 2016G."}, "[3]": {"test_system": "LNCaP-tumor xenograft", "test": "Biodistribution in LNCaP-tumor xenograft bearing CB-17 SCID mice", "assay_type": "in vivo", "conditions": "mouse, in vivo", "description": "All animal experiments were carried out in accordance with the general animal welfare regulations in Germany (Deutsches Tierschutzgesetz, approval #55.2-1-54-2532-71-13). For the tumor model, LNCaP cells (approx. 10^7 cells) were suspended in serum-free DMEM-F12 medium and Matrigel (1/1; v/v) (BD Biosciences, Germany) and inoculated onto the right shoulder of male, 6 to 8 weeks old CB-17 SCID mice (Charles River Laboratories, Sulzfeld, Germany). Animals were used after the tumor size reached 4 to 8 mm in diameter for experiments."}, "[4]": {"test_system": "LNCaP cells", "test": "Internalization into LNCaP cells, relative cellular uptake to ([^125I]I-BA)KuE", "assay_type": "cell-based", "conditions": "c = 1.0 nM ^177Lu-labeled inhibitor, 37° C., 60 min, corrected for non-specific binding (10 μM 2-PMPA), mean ± SD (n = 3)", "description": "PSMA-positive LNCAP cells (300265; Cell Lines Service GmbH) were cultivated in Dulbecco modified Eagle medium/Nutrition Mixture F-12 (1/1) (DMEM-F12, Biochrom) supplemented with fetal calf serum (FCS) (10%, Biochrom) and kept at 37° C. in a humidified CO2 atmosphere (5%). One day (24 h±2 h) prior to all experiments with LNCaP cells, the cultivated cells were harvested using a mixture of trypsin/ethylendiaminetetraacetate (0.05%/0.02%) and PBS and centrifuged. After centrifugation, the supernatant was disposed and the cell pellet resuspended in culture medium. Afterwards, cells were counted with a hemocytometer (Neubauer) and seeded in 24-well plates.\nSubsequent to the removal of the culture medium, the cells were washed once with DMEM-F12-solution (500 μL, 5% BSA) and left to equilibrate for at least 15 min at 37° C. in DMEM-F12-solution (200 μL, 5% BSA). Afterwards, each well was treated with either DMEM-F12-solution (25 μL, 5% BSA) or 2-PMPA-solution (25 μL, 100 μm) for blockade. […] The experiment was terminated by placing the 24-well plate on ice for 3 min and the consecutive removal of the medium. Each well was rinsed with HBSS (250 μL) and the fractions from these first two steps combined, representing the amount of free radioligand. Removal of surface bound activity was accomplished by incubation of the cells with ice-cold 2-PMPA-solution (250 μL, 10 μm in PBS) for 5 min and subsequent rinsing with ice-cold PBS (250 μL). The internalized activity was determined through incubation of the cells in NaOH (250 μL, 1.0 m) and the combination with the fraction of the subsequent washing step with again NaOH (250 μL, 1.0 m). Each experiment (control and blockade) was performed in triplicate for each time point. Free, surface bound and internalized activity was quantified in a γ-counter."}}}
{"smiles": "Nc1ccc(C[C@H](NC(=O)CCC(C(=O)O)N2CCN(CC(=O)O)CCN(CC(=O)O)CCN(CC(=O)O)CC2)C(=O)N[C@H](Cc2ccc(O)cc2)C(=O)N[C@H](Cc2ccc3ccccc3c2)C(=O)N[C@H](CCCCNC(=O)[C@@H](CC(=O)NCCC[C@@H](NC(=O)CC[C@H](NC(=O)N[C@@H](CCC(=O)O)C(=O)O)C(=O)O)C(=O)O)NC(=O)c2cc(C(=O)O)cc(C(=O)O)c2)C(=O)O)cc1", "note": "(stereo partly shown) [PSMA-62, DOTAGA-F(4-NH2)y-2-nal-k(d[N^5-orn-C^4-EuE]-TMA)]", "values": [{"measurement": "logP", "setting": "[1]", "value": "-4.12 ± 0.05"}, {"measurement": "HSA (albumin binding)", "setting": "[2]", "value": ">91.0", "unit": "%"}, {"measurement": "adrenal gland", "setting": "[3]; male, CB-17 SCID, 1 h", "value": "1.92 ± 0.80", "unit": "% ID/g"}, {"measurement": "blood", "setting": "[3]; male, CB-17 SCID, 1 h", "value": "0.52 ± 0.03", "unit": "% ID/g"}, {"measurement": "bone", "setting": "[3]; male, CB-17 SCID, 1 h", "value": "0.30 ± 0.08", "unit": "% ID/g"}, {"measurement": "brain", "setting": "[3]; male, CB-17 SCID, 1 h", "value": "0.03 ± 0.01", "unit": "% ID/g"}, {"measurement": "heart", "setting": "[3]; male, CB-17 SCID, 1 h", "value": "0.58 ± 0.06", "unit": "% ID/g"}, {"measurement": "intestine", "setting": "[3]; male, CB-17 SCID, 1 h", "value": "0.49 ± 0.25", "unit": "% ID/g"}, {"measurement": "liver", "setting": "[3]; male, CB-17 SCID, 1 h", "value": "0.37 ± 0.04", "unit": "% ID/g"}, {"measurement": "lung", "setting": "[3]; male, CB-17 SCID, 1 h", "value": "0.87 ± 0.11", "unit": "% ID/g"}, {"measurement": "muscle", "setting": "[3]; male, CB-17 SCID, 1 h", "value": "0.12 ± 0.03", "unit": "% ID/g"}, {"measurement": "pancreas", "setting": "[3]; male, CB-17 SCID, 1 h", "value": "0.18 ± 0.05", "unit": "% ID/g"}, {"measurement": "spleen", "setting": "[3]; male, CB-17 SCID, 1 h", "value": "4.62 ± 1.81", "unit": "% ID/g"}, {"measurement": "stomach", "setting": "[3]; male, CB-17 SCID, 1 h", "value": "0.51 ± 0.2", "unit": "% ID/g"}, {"measurement": "tumor", "setting": "[3]; male, CB-17 SCID, 1 h", "value": "8.00 ± 0.78", "unit": "% ID/g"}, {"measurement": "tumor/blood", "setting": "[3]; male, CB-17 SCID, 1 h", "value": 15.4}, {"measurement": "tumor/kidney", "setting": "[3]; male, CB-17 SCID, 1 h", "value": 0.08}, {"measurement": "tumor/muscle", "setting": "[3]; male, CB-17 SCID, 1 h", "value": 66.7}, {"measurement": "adrenal g.", "setting": "[3]; male, CB-17 SCID, 24 h", "value": "0.04 ± 0.02", "unit": "% ID/g"}, {"measurement": "blood", "setting": "[3]; male, CB-17 SCID, 24 h", "value": "0.004 ± 0.001", "unit": "% ID/g"}, {"measurement": "bone", "setting": "[3]; male, CB-17 SCID, 24 h", "value": "0.04 ± 0.006", "unit": "% ID/g"}, {"measurement": "brain", "setting": "[3]; male, CB-17 SCID, 24 h", "value": "0.01 ± 0.006", "unit": "% ID/g"}, {"measurement": "heart", "setting": "[3]; male, CB-17 SCID, 24 h", "value": "0.02 ± 0.01", "unit": "% ID/g"}, {"measurement": "intestine", "setting": "[3]; male, CB-17 SCID, 24 h", "value": "0.03 ± 0.02", "unit": "% ID/g"}, {"measurement": "liver", "setting": "[3]; male, CB-17 SCID, 24 h", "value": "0.17 ± 0.07", "unit": "% ID/g"}, {"measurement": "lung", "setting": "[3]; male, CB-17 SCID, 24 h", "value": "0.03 ± 0.02", "unit": "% ID/g"}, {"measurement": "muscle", "setting": "[3]; male, CB-17 SCID, 24 h", "value": "0.007 ± 0.001", "unit": "% ID/g"}, {"measurement": "pancreas", "setting": "[3]; male, CB-17 SCID, 24 h", "value": "0.01 ± 0.002", "unit": "% ID/g"}, {"measurement": "spleen", "setting": "[3]; male, CB-17 SCID, 24 h", "value": "0.09 ± 0.06", "unit": "% ID/g"}, {"measurement": "stomach", "setting": "[3]; male, CB-17 SCID, 24 h", "value": "0.03 ± 0.01", "unit": "% ID/g"}, {"measurement": "t/blood", "setting": "[3]; male, CB-17 SCID, 24 h", "value": 1925.0}, {"measurement": "t/kidney", "setting": "[3]; male, CB-17 SCID, 24 h", "value": 1.5}, {"measurement": "t/liver", "setting": "[3]; male, CB-17 SCID, 24 h", "value": 45.3}, {"measurement": "t/muscle", "setting": "[3]; male, CB-17 SCID, 24 h", "value": 1100.0}, {"measurement": "tumor", "setting": "[3]; male, CB-17 SCID, 24 h", "value": "7.70 ± 1.35", "unit": "% ID/g"}, {"measurement": "Internalization", "setting": "[4]; listed as [^177Lu]PSMA-62", "value": 343.9, "unit": "%"}, {"measurement": "Internalization", "setting": "[4]; listed as [^nat/177Lu]PSMA-62", "value": "343.9 ± 6.0", "unit": "%"}]}
{"smiles": "O=C(O)CC[C@H](NC(=O)N[C@@H](CCC(=O)NC(CCCNC(=O)C[C@@H](NC(=O)c1cc(C(=O)O)cc(C(=O)O)c1)C(=O)NCCCC[C@@H](NC(=O)[C@@H](Cc1ccc2ccccc2c1)NC(=O)[C@@H](Cc1ccc(O)cc1)NC(=O)[C@H](Cc1ccc2ccccc2c1)NC(=O)CCC(C(=O)O)N1CCN(CC(=O)O)CCN(CC(=O)O)CCN(CC(=O)O)CC1)C(=O)O)C(=O)O)C(=O)O)C(=O)O", "note": "(stereo partly shown) [PSMA-71, DOTAGA-2-Nal-y-2-nal-k(d[N^5-orn-C^4-EuE]-TMA)]", "values": [{"measurement": "logP", "setting": "[1]", "value": "-4.13 ± 0.09"}, {"measurement": "HSA (albumin binding)", "setting": "[2]", "value": 98.2, "unit": "%"}, {"measurement": "adrenal g.", "setting": "[3]; male, CB-17 SCID, 24 h", "value": "0.32 ± 0.15", "unit": "% ID/g"}, {"measurement": "blood", "setting": "[3]; male, CB-17 SCID, 24 h", "value": "0.008 ± 0.001", "unit": "% ID/g"}, {"measurement": "bone", "setting": "[3]; male, CB-17 SCID, 24 h", "value": "0.04 ± 0.02", "unit": "% ID/g"}, {"measurement": "brain", "setting": "[3]; male, CB-17 SCID, 24 h", "value": "0.01 ± 0.002", "unit": "% ID/g"}, {"measurement": "heart", "setting": "[3]; male, CB-17 SCID, 24 h", "value": "0.07 ± 0.01", "unit": "% ID/g"}, {"measurement": "intestine", "setting": "[3]; male, CB-17 SCID, 24 h", "value": "0.27 ± 015", "unit": "% ID/g"}, {"measurement": "liver", "setting": "[3]; male, CB-17 SCID, 24 h", "value": "0.38 ± 0.14", "unit": "% ID/g"}, {"measurement": "lung", "setting": "[3]; male, CB-17 SCID, 24 h", "value": "0.05 ± 0.01", "unit": "% ID/g"}, {"measurement": "muscle", "setting": "[3]; male, CB-17 SCID, 24 h", "value": "0.01 ± 0.001", "unit": "% ID/g"}, {"measurement": "pancreas", "setting": "[3]; male, CB-17 SCID, 24 h", "value": "0.15 ± 0.15", "unit": "% ID/g"}, {"measurement": "spleen", "setting": "[3]; male, CB-17 SCID, 24 h", "value": "0.27 ± 0.15", "unit": "% ID/g"}, {"measurement": "stomach", "setting": "[3]; male, CB-17 SCID, 24 h", "value": "0.20 ± 0.10", "unit": "% ID/g"}, {"measurement": "t/blood", "setting": "[3]; male, CB-17 SCID, 24 h", "value": 1786.3}, {"measurement": "t/kidney", "setting": "[3]; male, CB-17 SCID, 24 h", "value": 0.4}, {"measurement": "t/liver", "setting": "[3]; male, CB-17 SCID, 24 h", "value": 37.6}, {"measurement": "t/muscle", "setting": "[3]; male, CB-17 SCID, 24 h", "value": 1429.0}, {"measurement": "tumor", "setting": "[3]", "value": "highest tumor uptake"}, {"measurement": "Internalization", "setting": "[4]; listed as [^177Lu]PSMA-71", "value": "206.8±1.7", "unit": "%"}, {"measurement": "Internalization", "setting": "[4]; listed as [^nat/177Lu]PSMA-71", "value": "206.8 ± 1.7", "unit": "%"}]}
